Measurements reported in patent US20250319045A1, “TRANSETHOSOME-ENCAPSULATED AGENTS AND METHODS OF USE THEREOF” (Northwestern University, priority 2024, published 2025).

Columns and labels:
[1] = Local tolerance and dermal toxicity test, Draize scoring; conditions: after the 7th DNCB dose (third week), 0.05% in 95% ethanol
[2] = Encapsulation efficiency and drug loading by HPLC after ultrafiltration; format: physicochemical; conditions: Z-Endoxifen in transethosomes
Procedure: After cooling the transethosomes to room temperature, the remaining volume was 10 ml. The total drug concentration was determined by HPLC using 20 μL demulsified samples. 200 μL samples were collected into a 30 kDa ultrafiltration tube, added 1 mL of 25% ethanol, ultrafiltrated at 5000 rpm, and the drug concentration of subnatant was determined by HPLC.
Encapsulation efficiency was evaluated by HPLC. HPLC was performed using a WondaSil® C-18-WR column (4.6×150 mm, 5 μm pore size). The mobile phase included an A phase and a B phase at a ratio (A:B) of 30:70. The A phase contained 10 mM ammonium formate in water: 10 mM ammonium formate in methanol. The B phase contained 10 mM ammonium formate in methanol at a ratio of 40:60. Samples were prepared as follows. The solvent was prepared by mixing 10 mM ammonium formate in a solution containing water and acetonitrile at a ratio of 1:1 (v/v). Z-Endoxifen was diluted in the solvent at a concentration gradient of 5, 10, 25, 50, and 80 μg/mL. Samples were injected into the column at a volume of 20 μL and were passed through the column at a flow rate of 0.8 mL/min at a temperate of 30° C. The detection wavelength was 243 nm.
The following equations were used in Table 1: […]

Drug loading (%) [2] [%]	Encapsulation efficiency (%) [2] [%]	SMILES	Erythema score (Draize) ([1]; 3 of 10 animals)	Erythema score (Draize) ([1]; remaining 7 animals)
		O=[N+]([O-])c1ccc(Cl)c([N+](=O)[O-])c1 [DNCB, 1-chloro-2,4-dinitrobenzene]	2	1
4.77	92.34	CC/C(=C(\c1ccc(O)cc1)c1ccc(OCCNC)cc1)c1ccccc1 [Z-Endoxifen, (Z)-endoxifen]		
